Where a name gives a salt, the structure may show the parent alone.

For the molecule `CN1CC=C(c2cn(S(=O)(=O)C3CCCCC3)c3ccc(N)cc23)CC1` [Example 3, 5-Amino-1-cyclohexanesulfonyl-3-(1-methyl-1,2,3,6-tetrahydropyridine-4-yl)-1H-indole], the melting point – broadly, the temperature, or range, at which the solid turns liquid – is 75 °C.
The same measure for `CN1CC=C(c2cn(S(=O)(=O)C3CCCCC3)c3ccc(Cl)cc23)CC1` [Example 2, 5-Chloro-1-cyclohexanesulfonyl-3-(1-methyl-1,2,3,6-tetrahydropyridine-4-yl)-1H-indole]: 88 to 90 °C; for `O=S(=O)(C1CCCCC1)n1cc(C2=CCN3CCCC3C2)c2cc(F)ccc21` (stereo not shown) (as salt: hydrochloride) [Example 4, 1-Cyclohexanesulfonyl-5-fluoro-3-(1,2,3,5,8,8a-hexahydro-indolizine-7-yl)-1H-indole hydrochloride]: 263 °C; for `CN1CC=C(c2cn(S(=O)(=O)C3CCCCC3)c3ccc([N+](=O)[O-])cc23)CC1` [Example 1, 1-Cyclohexanesulfonyl-3-(1-methyl-1,2,3,6-tetrahydropyridine-4-yl)-5-nitro-1H-indole]: 155 to 160 °C.
